{"source": "paper PMC9664070", "about": "“The anticonvulsant phytocannabinoids CBGVA and CBDVA inhibit recombinant T-type channels” (Frontiers in Pharmacology, 2022)", "key": {"[1]": {"test_system": "autaptic hippocampal neurons", "set-up": "method as in Straiker et al., 2021", "conditions": "ref Straiker et al., 2021; cited from earlier work"}, "Cav3.3": {"biological_target": "T1, Cav3.3 (Homo sapiens, UniProt Q9P0X4)", "T1 construct": "expressed in transfected cells; host or cells: HEK293 Flp-In T-REx", "T1 sequence (Q9P0X4 whole entry)": "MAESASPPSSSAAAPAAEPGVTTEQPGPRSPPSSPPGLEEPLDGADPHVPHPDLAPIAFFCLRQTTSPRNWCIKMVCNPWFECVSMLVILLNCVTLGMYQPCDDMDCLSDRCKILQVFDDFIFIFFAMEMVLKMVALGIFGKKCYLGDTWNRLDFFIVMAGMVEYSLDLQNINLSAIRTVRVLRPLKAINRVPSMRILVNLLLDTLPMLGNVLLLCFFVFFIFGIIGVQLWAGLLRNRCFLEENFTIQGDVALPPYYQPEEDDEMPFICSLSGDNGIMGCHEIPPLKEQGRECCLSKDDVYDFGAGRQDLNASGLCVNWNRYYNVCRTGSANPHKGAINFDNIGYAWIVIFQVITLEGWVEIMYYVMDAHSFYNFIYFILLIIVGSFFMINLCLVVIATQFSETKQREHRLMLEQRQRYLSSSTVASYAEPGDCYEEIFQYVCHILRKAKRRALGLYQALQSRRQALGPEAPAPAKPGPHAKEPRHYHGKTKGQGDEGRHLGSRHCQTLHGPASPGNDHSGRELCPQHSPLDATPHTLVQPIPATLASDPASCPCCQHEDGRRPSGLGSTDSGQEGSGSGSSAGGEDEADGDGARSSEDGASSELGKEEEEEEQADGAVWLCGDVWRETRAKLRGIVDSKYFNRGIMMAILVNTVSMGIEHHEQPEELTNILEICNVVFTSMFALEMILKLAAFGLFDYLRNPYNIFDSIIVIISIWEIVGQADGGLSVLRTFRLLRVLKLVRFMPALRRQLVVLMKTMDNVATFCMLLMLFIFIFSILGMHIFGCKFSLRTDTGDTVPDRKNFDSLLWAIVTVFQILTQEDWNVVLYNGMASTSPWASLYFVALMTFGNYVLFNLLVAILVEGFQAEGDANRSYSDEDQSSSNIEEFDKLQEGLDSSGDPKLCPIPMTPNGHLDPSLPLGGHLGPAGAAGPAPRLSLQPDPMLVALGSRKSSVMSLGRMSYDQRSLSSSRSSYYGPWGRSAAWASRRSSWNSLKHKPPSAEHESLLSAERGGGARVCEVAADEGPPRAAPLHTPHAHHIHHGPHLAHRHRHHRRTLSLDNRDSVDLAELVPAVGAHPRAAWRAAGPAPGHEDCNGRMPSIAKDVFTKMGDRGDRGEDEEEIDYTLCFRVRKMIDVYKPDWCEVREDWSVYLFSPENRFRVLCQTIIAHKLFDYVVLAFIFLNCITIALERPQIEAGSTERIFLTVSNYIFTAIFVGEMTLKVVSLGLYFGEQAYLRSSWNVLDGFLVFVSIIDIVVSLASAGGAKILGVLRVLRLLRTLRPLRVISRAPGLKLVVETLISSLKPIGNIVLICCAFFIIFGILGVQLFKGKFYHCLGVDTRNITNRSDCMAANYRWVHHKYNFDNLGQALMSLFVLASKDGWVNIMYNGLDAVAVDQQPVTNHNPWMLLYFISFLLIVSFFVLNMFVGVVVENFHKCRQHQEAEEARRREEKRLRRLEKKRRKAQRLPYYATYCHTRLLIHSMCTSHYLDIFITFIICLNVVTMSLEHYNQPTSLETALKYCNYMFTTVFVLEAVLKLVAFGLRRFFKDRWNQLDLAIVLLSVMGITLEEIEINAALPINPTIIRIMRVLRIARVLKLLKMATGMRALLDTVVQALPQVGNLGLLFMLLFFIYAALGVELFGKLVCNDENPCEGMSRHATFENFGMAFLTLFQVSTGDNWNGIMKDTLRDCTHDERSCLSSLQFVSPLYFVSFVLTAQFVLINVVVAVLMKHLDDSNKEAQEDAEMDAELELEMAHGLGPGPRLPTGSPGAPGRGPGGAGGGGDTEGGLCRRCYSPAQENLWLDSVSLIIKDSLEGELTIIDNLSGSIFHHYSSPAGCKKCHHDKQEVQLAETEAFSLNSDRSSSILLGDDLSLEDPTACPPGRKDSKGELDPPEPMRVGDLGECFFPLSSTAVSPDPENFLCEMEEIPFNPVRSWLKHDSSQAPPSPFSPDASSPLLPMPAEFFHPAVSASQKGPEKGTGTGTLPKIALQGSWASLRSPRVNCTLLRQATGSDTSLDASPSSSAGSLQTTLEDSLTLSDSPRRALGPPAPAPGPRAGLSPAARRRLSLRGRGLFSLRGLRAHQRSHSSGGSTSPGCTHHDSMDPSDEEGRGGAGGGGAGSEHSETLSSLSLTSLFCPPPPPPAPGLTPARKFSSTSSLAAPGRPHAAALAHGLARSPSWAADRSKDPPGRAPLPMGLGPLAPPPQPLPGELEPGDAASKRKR", "test": "FLIPR calcium 5 assay, inhibition of 10 mM Ca-induced fluorescence", "assay_type": "cell-based", "conditions": "10 µM compound, HEK293 cells, mean ± SEM", "experimental": "(§1) Calcium 5 dye (Molecular Devices, United States ) was used to investigate compound activities at T-type calcium channels using Flexstation III. HEK293 cells overexpressing Cav3.1, Cav 3.2, and Cav 3.3 cells were resuspended in Leibovitz’s L-15 media containing 1% FBS, 1% P/S and 15 mM glucose. 90 µl of the resuspended cells (120,000 cells/well) were plated in a black-walled, 96-well microplate (Corning, NY, United States ) and incubated overnight in humidified air at 37°C. Channel expression was induced with tetracycline (2 μg/ml, Sigma-Aldrich) at plating. On the day of the assay, 90 µl of HBSS containing 5% Calcium dye (bulk kit) and 2.5 mM probenecid (Invitrogen, United States ) was added to each well and incubated for 1 h at 37°C. Change in fluorescence was measured in a FlexStation III plate reader every 2 s (ʎexcitation = 485 nm, ʎemission = 525 nm) for the duration of the experiment at 37°C. After 2 min baseline recording, drugs (20 µL) were added and read for 5 min, followed by 10 mM CaCl2 (20 µl) and read for a further 3 min.\n(§2) Unless otherwise stated, five independent experiments were performed for each condition, with each experiment conducted in duplicate. For the calcium assay, change in fluorescence by 10 mM Ca in the presence of drugs was normalised to change in fluorescence caused by 10 mM Ca in the presence of vehicle only to allow for comparison. In the Alphascreen assay, results were normalised to EC80 of ML-186 after subtraction of basal ERK phosphorylation (presence of a vehicle and 0.2% DMSO) to allow for easy comparison between phytocannabinoid activities. We fitted all concentration-response curves to a 4-parameter sigmoidal inhibitory response curve in GraphPad Prism (Version 6 GraphPad Software Inc., CA, United States) to derive IC50 and Emax values. All statistical analyses were conducted with GraphPad Prism. Two-tailed, unpaired t-tests were used to compare two data points and one-way ANOVA for more than two data points with Tukey post-hoc analysis. p-values < 0.05 were considered statistically significant.\n(§3) Our investigation of T-type channels began with a single-point screen, as described by [Bladen et al. (2021)]. We screened the inhibitory effect of 10 µM phytocannabinoids on the change in fluorescence elicited by the addition of 10 mM Ca^2+ in cells expressing Cav3.1, Cav3.2 or Cav3.3 channels ([Xie et al., 2007]; [Bladen et al., 2021])."}, "Cav3.2": {"biological_target": "T2, Cav3.2 (Homo sapiens, UniProt O95180)", "T2 construct": "expressed in transfected cells; host or cells: HEK293 Flp-In T-REx", "test": "FLIPR calcium 5 assay, inhibition of 10 mM Ca-induced fluorescence", "assay_type": "cell-based", "experimental": "as §1, §2, §3"}, "Cav3.1 [2]": {"biological_target": "T3, Cav3.1 (Homo sapiens, UniProt O43497)", "T3 construct": "expressed in transfected cells; host or cells: HEK293 Flp-In T-REx", "T3 sequence (O43497 whole entry)": "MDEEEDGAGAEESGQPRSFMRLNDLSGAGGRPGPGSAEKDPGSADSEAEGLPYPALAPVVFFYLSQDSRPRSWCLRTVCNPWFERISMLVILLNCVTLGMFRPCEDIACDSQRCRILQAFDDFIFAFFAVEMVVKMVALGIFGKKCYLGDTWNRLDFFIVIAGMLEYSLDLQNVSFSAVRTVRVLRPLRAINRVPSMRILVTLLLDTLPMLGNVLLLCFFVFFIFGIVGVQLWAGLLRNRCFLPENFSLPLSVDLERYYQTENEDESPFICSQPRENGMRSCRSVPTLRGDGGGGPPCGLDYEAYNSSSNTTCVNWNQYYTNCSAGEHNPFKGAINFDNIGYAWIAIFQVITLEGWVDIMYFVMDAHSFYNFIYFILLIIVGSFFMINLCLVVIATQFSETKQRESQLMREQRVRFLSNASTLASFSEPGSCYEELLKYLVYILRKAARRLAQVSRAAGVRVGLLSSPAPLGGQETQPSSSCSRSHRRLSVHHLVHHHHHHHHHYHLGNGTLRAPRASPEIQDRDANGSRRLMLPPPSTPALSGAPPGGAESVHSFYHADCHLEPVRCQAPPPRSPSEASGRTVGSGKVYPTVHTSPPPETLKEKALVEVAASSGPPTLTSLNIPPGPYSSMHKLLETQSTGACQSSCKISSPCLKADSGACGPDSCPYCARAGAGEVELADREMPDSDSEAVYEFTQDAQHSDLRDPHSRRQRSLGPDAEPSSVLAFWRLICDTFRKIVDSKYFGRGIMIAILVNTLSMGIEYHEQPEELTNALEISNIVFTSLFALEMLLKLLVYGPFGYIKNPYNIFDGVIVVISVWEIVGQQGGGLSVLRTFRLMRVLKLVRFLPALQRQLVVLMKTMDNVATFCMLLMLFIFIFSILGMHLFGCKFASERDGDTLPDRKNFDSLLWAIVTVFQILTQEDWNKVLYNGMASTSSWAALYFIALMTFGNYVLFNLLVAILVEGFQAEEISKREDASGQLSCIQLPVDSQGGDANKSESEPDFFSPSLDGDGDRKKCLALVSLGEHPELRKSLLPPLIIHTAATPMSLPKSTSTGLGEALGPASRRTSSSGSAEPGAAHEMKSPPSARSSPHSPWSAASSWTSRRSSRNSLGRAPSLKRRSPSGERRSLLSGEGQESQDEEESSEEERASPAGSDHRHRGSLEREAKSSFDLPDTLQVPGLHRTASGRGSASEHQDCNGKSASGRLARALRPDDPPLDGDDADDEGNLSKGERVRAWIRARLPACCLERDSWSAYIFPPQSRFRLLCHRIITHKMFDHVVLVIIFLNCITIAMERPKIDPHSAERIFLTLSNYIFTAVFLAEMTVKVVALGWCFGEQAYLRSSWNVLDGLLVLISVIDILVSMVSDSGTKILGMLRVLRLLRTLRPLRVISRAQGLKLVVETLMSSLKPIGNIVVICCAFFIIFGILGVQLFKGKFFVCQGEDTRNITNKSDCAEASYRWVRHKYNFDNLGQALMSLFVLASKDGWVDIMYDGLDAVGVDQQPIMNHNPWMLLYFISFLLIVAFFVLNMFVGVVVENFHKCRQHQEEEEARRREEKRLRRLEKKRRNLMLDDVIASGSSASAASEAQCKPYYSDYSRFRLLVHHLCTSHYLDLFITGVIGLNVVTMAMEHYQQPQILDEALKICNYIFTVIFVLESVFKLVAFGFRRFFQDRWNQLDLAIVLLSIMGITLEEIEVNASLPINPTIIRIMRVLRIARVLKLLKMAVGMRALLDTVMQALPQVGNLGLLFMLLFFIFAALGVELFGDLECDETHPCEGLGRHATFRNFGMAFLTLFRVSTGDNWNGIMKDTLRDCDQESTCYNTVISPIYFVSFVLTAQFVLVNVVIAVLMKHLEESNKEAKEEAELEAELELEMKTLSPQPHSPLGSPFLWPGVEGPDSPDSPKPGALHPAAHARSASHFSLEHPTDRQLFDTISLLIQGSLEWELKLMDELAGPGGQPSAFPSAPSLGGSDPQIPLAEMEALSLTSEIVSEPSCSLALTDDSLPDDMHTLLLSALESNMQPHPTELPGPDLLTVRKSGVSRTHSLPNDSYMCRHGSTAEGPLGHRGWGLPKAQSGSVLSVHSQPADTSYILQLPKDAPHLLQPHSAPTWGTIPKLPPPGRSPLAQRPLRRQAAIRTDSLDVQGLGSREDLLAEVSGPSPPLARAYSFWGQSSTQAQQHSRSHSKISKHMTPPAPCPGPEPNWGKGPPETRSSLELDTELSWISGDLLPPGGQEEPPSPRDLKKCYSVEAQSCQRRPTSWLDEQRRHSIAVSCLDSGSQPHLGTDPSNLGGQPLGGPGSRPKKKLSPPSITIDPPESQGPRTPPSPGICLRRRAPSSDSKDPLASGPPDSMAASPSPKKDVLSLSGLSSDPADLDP", "test": "FLIPR calcium 5 assay, inhibition of 10 mM Ca-induced fluorescence", "assay_type": "cell-based", "experimental": "as §1, §2, §3"}, "GPR55": {"biological_target": "T4, GPR55 (Homo sapiens, UniProt Q9Y2T6)", "T4 construct": "expressed in transfected cells; host or cells: HEK 293", "T4 sequence (Q9Y2T6 whole entry, species assumed)": "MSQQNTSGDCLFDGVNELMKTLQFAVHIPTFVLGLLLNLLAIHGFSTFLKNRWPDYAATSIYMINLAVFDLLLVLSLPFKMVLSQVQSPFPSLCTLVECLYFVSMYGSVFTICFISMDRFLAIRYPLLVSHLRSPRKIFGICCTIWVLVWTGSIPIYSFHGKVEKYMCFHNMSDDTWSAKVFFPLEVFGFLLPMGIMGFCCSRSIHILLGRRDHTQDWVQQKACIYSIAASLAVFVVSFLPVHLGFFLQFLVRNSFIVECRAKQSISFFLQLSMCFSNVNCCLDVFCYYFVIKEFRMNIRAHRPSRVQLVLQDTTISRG", "test": "Alphascreen ERK phosphorylation assay, antagonism of ML-186-induced ERK phosphorylation", "assay_type": "cell-based", "conditions": "in the presence of EC80 of ML-186 (0.45 µM), HEK 293 GPR55 cells", "experimental": "as §2"}, "[3]": {"test_system": "hyperthermia-induced seizures", "set-up": "method as in earlier work", "conditions": "Scn1a+/- mice, ref Anderson et al., 2019, 2021a, 2021b; cited from earlier work"}, "[4]": {"conditions": "ref Anderson et al., cited from earlier work"}, "diacylglycerol lipase": {"test_system": "diacylglycerol lipase", "set-up": "method as in de Petrocellis et al., 2011", "conditions": "ref de Petrocellis et al., 2011; cited from earlier work"}, "[5]": {"test_system": "dorsal root ganglion neurons", "set-up": "method as in Straiker et al., 2021", "conditions": "ref Straiker et al., 2021; cited from earlier work"}, "Cav3.1 [6]": {"biological_target": "T3, Cav3.1", "test": "Whole-cell voltage-clamp electrophysiology in HEK293 Flp-In T-REx cells", "assay_type": "cell-based", "experimental": "All whole-cell voltage-clamp recordings from HEK293 Flp-In T-REx cells stably transfected with human Cav3.1, Cav 3.2 and Cav 3.3 were performed at room temperature. At least 24 h prior to experiments, cells were detached from flasks using trypsin/EDTA and plated into 10 cm sterile tissue culture dishes containing 10 ml of supplemented DMEM and 10–15 glass coverslips (12 mm diameter, ProScitech, QLD, Australia). Culture dishes were then kept overnight in same conditions as flasks to allow cells to adhere to coverslips. They were then transferred to a 30°C/5% CO2 incubator to inhibit cell proliferation until ready to be used for electrophysiology experiments. At this stage, channel expression was induced with tetracycline (2 μg/ml, Sigma-Aldrich) 8–24 h prior to recording cells.\nExternal recording solutions contained (in mM): 114 CsCl, 5 BaCl2, 1 MgCl2, 10 HEPES, 10 glucose, adjusted to pH 7.4 with CsOH. The internal patch pipette solution contained (in mM): 126.5 CsMeSO4, 2 MgCl2, 11 EGTA, 10 HEPES adjusted to pH 7.3 with CsOH. Internal solution was supplemented with 0.6 mM GTP and 2 mM ATP and mixed thoroughly just before use. Liquid junction potentials for the above solutions were calculated before experiments using pClamp 10 software and corrected during experiments. Compounds were prepared daily from 30 mM DMSO stocks and diluted into an external solution just before use. Compounds were then applied rapidly and locally to the cells using a custom-built gravity-driven micro-perfusion system ([Feng et al., 2003]). […] Currents were elicited from a holding potential of -100 mV and were measured by conventional whole-cell patch clamp techniques using an Axopatch 200B amplifier in combination with Clampex 9.2 software. (Molecular Devices, Sunnyvale, CA). After establishing whole cell configuration, cellular capacitance was minimised using the amplifier’s built-in analogue compensation. Series resistance was kept to <10 MΩ and was compensated to at least 85% in all experiments. All data were digitised at 10 kHz with a Digidata 1,320 interface (Molecular Devices) and filtered at 1 kHz (8-pole Bessel filter). Raw and online leak-subtracted data were both collected simultaneously, P/N4 leak subtraction was performed using opposite polarity and after the protocol sweep.\nFor tonic inhibition of T-type currents, membrane potential was stepped from −100 mV to −30 mV for 200 ms and then allowed to recover for 12 s (1 sweep). A minimum of 10 sweeps were collected under vehicle control external perfusion to allow for control peak current to equilibrate. The drug was then continuously perfused, and sweeps were recorded until no further inhibition was seen (minimum of 3 sweeps with the same amplitude). In current-voltage relation studies, the membrane potential was held at −100 mV and cells were depolarised from −70 to 50 mV in 10 mV increments. For steady-state inactivation studies, a 3.6 s conditioning pre-pulse of various magnitudes (initial holding at −110 mV) was followed by a depolarising pulse to −30 mV. Individual sweeps were separated by 12 s to permit recovery from inactivation between conditioning pulses. The duration of the test pulse was typically 20 ms, and the current amplitude obtained from each test pulse was normalised to that observed at the holding potential of −100 mV.\nThe effect of CBGVA and CBDVA (5 µM each) on slow inactivation was tested using a 2-pulse voltage protocol as described in Bladen et al., (2021). Briefly, cells expressing Cav3.1 were initially depolarised with a 200 ms test pulse from -120 mV to −30 mV to generate peak current (P1) and followed by a 10 s pre-conditioning pulse to −80 mV to reverse fast inactivation. Cells were further depolarised with another 200 ms test pulse from −120 to −30 mV (P2) (Figure 2 inset).\nTHC and CBD cause substantial frequency-dependent inhibition of Cav3.2 and Nav1.8 channels, respectively ([Ross et al., 2008]; [Bladen et al., 2021]; [Zhang and Bean, 2021]). […]"}, "[7]": {"test": "Plasma and brain exposure at anticonvulsant doses in mice (literature)", "assay_type": "in vivo", "conditions": "from peak plasma concentration and brain-plasma ratio"}, "[8]": {"conditions": "10 µM compound, 10 mM Ca-induced fluorescence, HEK293 cells, mean ± SEM"}}, "note": "Where “and” joins values, the source holds several entries; their conditions need not be identical. Equal entries are not always repeated.", "data": [{"smiles": "C=C(C)[C@@H]1CCC(C)=C[C@H]1c1c(O)cc(CCC)c(C(=O)O)c1O", "note": "[CBDVA, cannabidivarinic acid]", "values": [{"measurement": "effect on excitatory neurotransmission", "setting": "[1]", "value": "did not alter excitatory neurotransmission"}, {"measurement": "% Inhibition of Fluorescence Cav3.3", "setting": "Cav3.3", "value": "8 ± 4", "unit": "%"}, {"measurement": "IC50", "setting": "Cav3.2; FLIPR concentration-response, HEK293 Cav3.2 cells, read-out: IC50, inhibition of change in fluorescence, Cav3.2", "value": 11, "unit": "µM"}, {"measurement": "IC50", "setting": "Cav3.1 [2]; FLIPR concentration-response, HEK293 Cav3.1 cells, read-out: IC50, inhibition of change in fluorescence, Cav3.1", "value": 2, "unit": "µM"}, {"measurement": "IC50", "setting": "GPR55", "value": 10, "unit": "µM"}, {"measurement": "effect against hyperthermia-induced seizures", "setting": "[3]", "value": "anticonvulsant"}, {"measurement": "Peak plasma concentration", "setting": "[4]; anticonvulsant doses in mice, 2021b", "value": "~239", "unit": "µM"}, {"measurement": "brain-plasma ratio", "setting": "[4]; 2019", "value": 2, "unit": "%"}, {"measurement": "inhibition of diacylglycerol lipase", "setting": "diacylglycerol lipase", "value": "inhibit the endocannabinoid synthetic enzyme diacylglycerol lipase at a relatively high concentration"}, {"measurement": "effect on calcium responses", "setting": "[5]", "value": "did not alter calcium responses"}, {"measurement": "V0.5 of voltage dependence of Cav3.1 activation", "setting": "Cav3.1 [6]; 5 µM compound", "value": "−54.7 ± 1.2", "unit": "mV"}, {"measurement": "half-inactivation (V0.5), steady-state inactivation of Cav3.1", "setting": "Cav3.1 [6]; 5 µM compound", "value": "−70.9 ± 0.5", "unit": "mV"}, {"measurement": "Cav3.1 relative current at 50th action potential, % of first", "setting": "Cav3.1 [6]; 5 µM, 0.4 Hz stimulation", "value": "90 ± 1", "unit": "%"}, {"measurement": "Cav3.1 relative current at 50th action potential, % of first", "setting": "Cav3.1 [6]; 5 µM, 0.8 Hz stimulation", "value": "93 ± 1", "unit": "%"}, {"measurement": "inhibition of Cav3.1 peak current, second test pulse (P2), slow inactivated state", "setting": "Cav3.1 [6]; 5 µM, 2-pulse voltage protocol, after 10 s pre-conditioning pulse to −80 mV", "value": "45 ± 5", "unit": "%"}, {"measurement": "inhibition of Cav3.1 peak current, first test pulse (P1)", "setting": "Cav3.1 [6]; 5 µM, 2-pulse voltage protocol, before slow inactivation", "value": "35 ± 5", "unit": "%"}, {"measurement": "Cav3.1 relative current at 50th action potential, % of first", "setting": "Cav3.1 [6]; 5 µM, 2.0 Hz stimulation", "value": "83 ± 1", "unit": "%"}, {"measurement": "IC50", "setting": "Cav3.1 [6]; patch clamp, step −100 mV to −30 mV every 12 s, read-out: IC50, tonic inhibition of Cav3.1 current amplitude", "value": 7, "unit": "µM"}, {"measurement": "expected brain concentration", "setting": "[7]", "value": 5, "unit": "µM"}]}, {"smiles": "CCCCCc1cc(O)c(C/C=C(\\C)CCC=C(C)C)c(O)c1C(=O)O", "note": "[CBGA, cannabigerolic acid]", "values": [{"measurement": "effect against hyperthermia-induced seizures", "setting": "[3]", "value": "anticonvulsant"}]}, {"smiles": "CCCc1cc(O)c2c(c1)OC(C)(CCC=C(C)C)C=C2", "note": "(stereo not shown) [CBCV]", "values": [{"measurement": "% Inhibition of Fluorescence Cav3.3", "setting": "Cav3.3", "value": "1 ± 1", "unit": "%"}, {"measurement": "% Inhibition of Fluorescence Cav3.2", "setting": "Cav3.2; [8]", "value": "-37 ± 21", "unit": "%"}, {"measurement": "effect on influx of Ca2+ ions in cells expressing Cav3.2", "setting": "Cav3.2; 10 µM, FLIPR", "value": "appeared to increase the influx of Ca^2+ ions"}]}, {"smiles": "CCCc1cc(O)c(C/C=C(\\C)CCC=C(C)C)c(O)c1", "note": "[CBGV]", "values": [{"measurement": "% Inhibition of Fluorescence Cav3.3", "setting": "Cav3.3", "value": "6 ± 3", "unit": "%"}, {"measurement": "% Inhibition of Fluorescence Cav3.1", "setting": "Cav3.1 [2]; [8]", "value": "< 80% and 51 ± 14%"}]}]}
